This note sets out measurements from patent US20020028938A1, “Prostaglandin endoperoxide H synthase biosynthesis inhibitors” (priority 1997, published 2002).

The structures appear in SMILES notation.

The target of data set [1] is T1, recombinant human Cox-2 (r-hu Cox-2) (Homo sapiens, UniProt P35354).
T1 construct: made in house; host or cells: baculovirus/Sf9 insect cells (microsomes)
T1 sequence (P35354 18-604): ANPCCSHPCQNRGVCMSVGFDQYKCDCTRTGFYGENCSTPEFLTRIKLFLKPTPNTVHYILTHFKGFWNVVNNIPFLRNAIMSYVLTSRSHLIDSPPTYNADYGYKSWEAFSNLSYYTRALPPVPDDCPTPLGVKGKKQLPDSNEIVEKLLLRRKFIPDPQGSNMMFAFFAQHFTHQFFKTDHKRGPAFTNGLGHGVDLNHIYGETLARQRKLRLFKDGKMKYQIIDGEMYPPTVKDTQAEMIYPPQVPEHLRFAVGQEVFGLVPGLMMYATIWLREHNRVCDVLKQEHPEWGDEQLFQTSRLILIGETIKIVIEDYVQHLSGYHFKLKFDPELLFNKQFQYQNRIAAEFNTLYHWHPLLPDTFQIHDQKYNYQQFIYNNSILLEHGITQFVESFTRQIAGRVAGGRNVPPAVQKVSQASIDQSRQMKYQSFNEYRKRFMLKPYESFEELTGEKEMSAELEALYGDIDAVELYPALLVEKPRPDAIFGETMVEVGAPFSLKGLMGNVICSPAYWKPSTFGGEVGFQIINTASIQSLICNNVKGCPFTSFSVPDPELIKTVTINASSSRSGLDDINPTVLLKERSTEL
Put plainly: Recombinant human PGHS-2 enzyme assay (RHUCX2). In kind it is biochemical. The conditions noted are these: read-out: RHUCX2 IC50 (parenthetical value). The method in brief:
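Recombinant enzyme reaction ran 2.5 minutes at room temperature, then was quenched with HCl and neutralized with NaOH. PGE2 formed with and without drug was quantified by EIA against standards in the same milieu. Percent inhibition versus control mean; IC50 by linear regression.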

Data set [2] has as its target T2, human amnionic whole cell cyclooxygenase-2 (WISH cells) (Homo sapiens, UniProt P35354).
T2 construct: endogenous in cells; host or cells: human amnionic WISH cells, induced with IL-1beta
T2 sequence (P35354 18-604): T1 sequence (P35354 18-604)
Put plainly: IL-1β induced PGE2 production in WISH cells. The class given is cell-based. As to conditions: read-out: Wish IC50 (parenthetical value). The method in brief: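 Confluent (80%) WISH cells were stimulated with 5 ng/ml IL-1β in serum-free Neuman-Tytell medium, with or without test compound in DMSO (0.01% v/v). PGE2 in the culture medium was measured by EIA against standards prepared in the same medium, read by optical density.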

Data set [3] deals with air pouch prostaglandin biosynthesis (Cox-2). Put plainly: Carrageenan induced air pouch prostaglandin biosynthesis model (CAP). In kind it is in vivo, rat. As to conditions: 4 h; 3 mpk, rat; read-out: CAP % Inhib. @ 3 mpk. The method in brief: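 Male Sprague Dawley rats with dorsal air pouches (20 mL air day 0, 10 mL day 3) received 0.2% lambda carrageenan in saline into the pouch on day 7. Compounds dosed at 0.1 to 10 mg/kg 30 min before carrageenan; pouch lavaged 4 h later, prostaglandins measured by EIA. Percent inhibition versus control mean; ED50 by linear regression.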

Regarding `NS(=O)(=O)c1ccc(-c2cnn(-c3ccc(F)cc3)c(=O)c2-c2ccc(F)cc2)cc1` [Example 89], the melting point – broadly, the temperature, or range, at which the solid turns liquid – was in the range of 213 to 216 °C. Further, the concentration for half-maximal inhibition (IC50) (usually the concentration that inhibits the measured activity by half) in data set [1] worked out at 350 nM. The IC50 in data set [2] was found to be 50 nM. Moreover, the inhibition in vivo at 3 mg/kg in data set [3] is 94%.
